{"source": "ChEMBL document CHEMBL3044589", "about": "“Effects of propylene oxide doses on Cyperus and Belonolaimus control and nutrient absorption in tomato” (2007)", "key": {"Solanum lycopersicum [1]": {"system": "Solanum lycopersicum", "experiment": "Increase in Solanum lycopersicum (tomato) plant yield at 760 l/ha applied 12 days prior to transplantation measured after 12 to 14 weeks relative to untreated-control", "assay_type": "functional"}, "Solanum lycopersicum [2]": {"system": "Solanum lycopersicum", "experiment": "Increase in Solanum lycopersicum (tomato) plant yield at […] applied 12 days prior to transplantation measured after 12 to 14 weeks relative to untreated-control", "assay_type": "functional"}, "Solanum lycopersicum [3]": {"system": "Solanum lycopersicum", "experiment": "Increase in Solanum lycopersicum (tomato) plant yield at 190 to 950 l/ha applied 12 days prior to transplantation measured after 12 to 14 weeks", "assay_type": "functional, organism-based"}, "Solanum lycopersicum [4]": {"system": "Solanum lycopersicum", "experiment": "Increase in Solanum lycopersicum (tomato) plant vigor at 190 to 950 l/ha applied 12 days prior to transplantation measured after 10 weeks", "assay_type": "functional, organism-based"}, "Solanum lycopersicum [5]": {"system": "Solanum lycopersicum", "experiment": "Increase in Solanum lycopersicum (tomato) foliar potassium concentration at 190 to 950 l/ha applied 12 days prior to transplantation measured after 4 weeks (reference value: 2.38%)", "assay_type": "functional"}, "Solanum lycopersicum [6]": {"system": "Solanum lycopersicum", "experiment": "Increase in Solanum lycopersicum (tomato) foliar phosphorus concentration at 190 to 950 l/ha applied 12 days prior to transplantation measured after 4 weeks (reference value: 0.31%)", "assay_type": "functional"}, "Belonolaimus": {"system": "Belonolaimus", "experiment": "Nematocidal activity against Belonolaimus at 190 to 950 l/ha applied 12 days prior to tomato transplantation measured after 14 weeks", "assay_type": "functional, organism-based"}, "Cyperus [7]": {"system": "Cyperus", "experiment": "Herbicidal activity against Cyperus at 850 l/ha applied 12 days prior to tomato transplantation measured after 14 weeks relative to control", "assay_type": "functional"}, "Cyperus [8]": {"system": "Cyperus", "experiment": "Herbicidal activity against Cyperus at 775 l/ha applied 12 days prior to tomato transplantation measured after 8 weeks relative to control", "assay_type": "functional"}, "Cyperus [9]": {"system": "Cyperus", "experiment": "Herbicidal activity against Cyperus at 190 l/ha applied 12 days prior to tomato transplantation measured after 4 weeks relative to control", "assay_type": "functional"}, "Cyperus [10]": {"system": "Cyperus", "experiment": "Herbicidal activity against Cyperus at 190 to 950 l/ha applied 12 days prior to tomato transplantation measured after 4 to 14 weeks relative to control", "assay_type": "functional, organism-based"}}, "note": "Activity calls are given as the source filed them. The rule behind the calls is not given here."}
{"smiles": "CC1CO1", "note": "(stereo unspecified) [PROPYLENE OXIDE]", "values": [{"measurement": "fold change (FC)", "setting": "Solanum lycopersicum [1]", "value": 4.1}, {"measurement": "fold change (FC)", "setting": "Solanum lycopersicum [2]", "value": 3.5}, {"measurement": "Activity", "setting": "Solanum lycopersicum [3]", "value": "Active"}, {"measurement": "Activity", "setting": "Solanum lycopersicum [4]", "value": "Active"}, {"measurement": "Activity", "setting": "Solanum lycopersicum [5]", "value": 3.25, "unit": "%"}, {"measurement": "Activity", "setting": "Solanum lycopersicum [6]", "value": 0.51, "unit": "%"}, {"measurement": "Activity", "setting": "Belonolaimus", "value": "Active"}, {"measurement": "Activity", "setting": "Cyperus [7]", "value": 80, "unit": "%"}, {"measurement": "Activity", "setting": "Cyperus [8]", "value": 80, "unit": "%"}, {"measurement": "Activity", "setting": "Cyperus [9]", "value": 80, "unit": "%"}, {"measurement": "Activity", "setting": "Cyperus [10]", "value": "Active"}]}
